Reference: patent publication US12421517B2, “Genetic modification of mammalian cells to confer resistance to CSF1R antagonists” (THE REGENTS OF THE UNIVERSITY OF CALIFORNIA, priority 2021, dated 2025)
“Also recorded” adds a separate entry of the source.

How the values were obtained:
[1] = test system: G795A iPSC-microglia; assay: Caspase 3/7 cell death assay (IncuCyte, 24 h imaging); assay type: cell-based, human; conditions: 250 nM, 500 nM, 1 μm, versus DMSO control
Text: (§1) FIGS. 4A, 4B, 4C, 4D, and 4E show human stem cell-derived microglia are also susceptible to and killed by CSF1R inhibition in vitro. […] Images captured on Incucyte S3 live-cell imager. […] Images captured on Incucyte S3 live-cell imager. […] Images captured on Incucyte S3 live-cell imager. […] Images captured on Incucyte S3 live-cell imager. […] For all panels, n=4 images in six independent wells were quantified. Data represented as mean values±SEM.
(§2) Strategy 1: A crystal structure of the CSF1R receptor bound to an antagonist (PMID: 31434879) to predict amino acid substitutions that may sterically hinder the binding of CSF1R antagonists while not impairing the normal binding of ATP into the same binding pocket. The crystal structure of PLX5622 bound to human CSF1R was obtained and the ATP binding pocket was examined (FIG. 7A). Through molecular modeling single amino acid changes were predicted that would likely impair the binding of PLX5622 or PLX3397 or other CSF1R antagonists while not disrupting normal ATP binding to CSF1R. […] Other mutations could also be explored to prevent binding (FIG. 7D). […] The resulting iPSCs were then differentiated into microglia and exposed to varying concentrations of either PLX3397 or PLX5622. To detect microglial cell death (apoptosis) a caspase-3/7 fluorogenic reporter was used. […] FIG. 4F provided representative images of cell density (phase-contrast microscopy, 1st column) and fluorescent Caspase-3/7 activity (2nd column) across each dose of PLX3397 and PLX5622.
(§3) Resistance to each of the CSF1R inhibitors tested was quantified using a fluorogenic caspase 3/7 detector (Essen BioScience) and time-lapse imaging over 24 hours.
(§4) Cell death assay: iPS-microglia were plated at 70K cells per 96-well plate (6 wells per line per condition). At time 0, all microglia were treated with IncuCyte Caspase-3/7 Green Apoptosis Assay Reagent 1:1000. Cells were maintained in the described medium: fresh complete medium+0.1% DMSO, complete media+250 nM PLX3397, complete medium+500 nM PLX3397, complete medium+1 μm PLX3397, complete medium+250 nM PLX5622, complete medium+500 nM PLX5622, complete medium+1 μm PLX5622, complete medium+250 nM Edicotinib, complete medium+500 nM Edicotinib, complete medium+1 μm Edicotinib, complete medium+250 nM BLZ945, complete medium+500 nM BLZ945, complete medium+1 μm BLZ945. Four 20× images per well were collected every hour for 24 hours. Using IncuCyte 2020B software, image masks for phase confluence (visually gated out apoptotic cells) as well as caspase 3/7 signal (green) were generated. Graphs display caspase normalized to phase confluence, completed with 3 lines: WT, G795A, G795C (see FIGS. 4A, 4B, 4C, 4D, and 4E).

[2] = test system: G795C iPSC-microglia; assay: as above; assay type: cell-based, human; conditions: 250 nM, 500 nM, 1 μm, versus DMSO control
Text: as §1, §2, §3, §4

[3] = test system: WT microglia; assay: as above; assay type: cell-based, human; conditions: 250 nM, 500 nM, 1 μm, versus DMSO control
Text: as §1, §2, §3, §4

[4] = test system: G795A iPSC-microglia; assay: LIVE/DEAD viability/cytotoxicity assay; assay type: cell-based, human; conditions: 500 nM or 1 uM, 24 hours
Protocol: (§5) FIGS. 5A and 5B show G795A iPSC-derived microglia are resistant to CSF1R antagonist-induced cell death. As cells can die from processes other than caspase-mediated apoptosis, it is important to determine whether the G795A mutation provides a more broad-based resistance to any form of cell death induced by CSF1R antagonists. Therefore, G795A and wild-type (WT) iPSC-microglia were treated for 24 hours with either 500 nM (FIG. 5A) or 1 uM (FIG. 5B) of DMSO vehicle control or one of four CSF1R antagonists; PLX3397, PLX5622, Edicotinib, and BLZ945. The percent of live versus dead cells was then quantified using a two-color viability/cytotoxicity approach (Thermo L3224; LIVE/DEAD™ Viability/Cytotoxicity Kit). Very few dead microglia are observed 24 hours after treatment with DMSO. […] Live cells are denoted with a circle.

[5] = test system: wild-type (WT) iPSC-microglia; assay: LIVE/DEAD viability/cytotoxicity assay; assay type: cell-based, human; conditions: 500 nM or 1 uM, 24 hours
Protocol: as §5

[6] = test system: G795A xMGs; assay: Xenotransplanted human microglia in adult mice, PLX3397 chow, immunohistochemistry; assay type: in vivo; conditions: 600 mg/kg in rodent chow ad libitum, 4 weeks
Text: (§6) FIGS. 11A, 11B, 110, 11D, 11E, 11F, 11G, 11H, 11I, and 11J show G795A iPSC-derived microglia are resistant to CSF1R […] treatment and enable robust engraftment of human microglia within the adult mammalian brain. Xenotransplantation-compatible mice received bilateral stereotactic intrahippocampal injections of 500,000 iPSC-derived human microglia (xMGs) at 2-months of age. Mice received xMGs differentiated from either a homozygous CSF1R-resistant G795A human IPSO line or an isogenic unmodified Wad-Type human iPSC. At […], mice were treated with 600 mg/kg of PLX3397 in rodent chow ad libitum for 4 weeks duration. Mice were then sacrificed, and half-brains were examined by fluorescent immunohistochemistry and confocal microscopy.

[7] = test system: wild-type human xMGs; assay: as above; assay type: in vivo; conditions: 600 mg/kg in rodent chow ad libitum, 4 weeks
Text: as §6

[8] = test system: CSF1R-G795A human iPSC-microglia; assay: Quantification of human iPSC-microglial engraftment (Ku80+/Iba1+) in adult hCSF1 mice; assay type: in vivo; conditions: after CSF1R-G795A iPSC-microglia transplantation, 600 mg/kg PLX3397 in food
Protocol: In contrast, when CSF1R-G795A iPSC-microglia transplantation is followed with treatment of mice for 10 days with PLX3397 containing mouse chow (600 mg/kg PLX3397 in food), the percent of human microglia increases to almost 25%. After 30 days of PLX3397 treatment (600 mg/kg PLX3397 in food), 90-95% of all microglia in the brain are human as evidenced by co-expression of Ku80 and IBA1. By transplanting CSF1R-G795A iPSC-microglia and varying the concentration and duration of CSF1R antagonist treatment either before, during, or after transplantation, one can control the degree of human iPSC-microglial engraftment.

[9] = test system: MUT1 (G795A) microglia; assay: RNA-seq after 24-hour treatment versus DMSO; assay type: cell-based, human
Text: (§7) FIGS. 2A, 2B, 2C, 2D, 2E, and 2F show selected CSF1R mutations have little effect on transcriptomic signature while simultaneously imparting resistance to PLX5622.

[10] = test system: MUT2 (G795C) microglia; assay: RNA-seq after 24-hour treatment versus DMSO; assay type: cell-based, human
Text: as §7

[11] = test system: WT microglia; assay: RNA-seq after 24-hour treatment versus DMSO; assay type: cell-based, human; conditions: FDR≤0.05, log 2(FC)≥±1
Text: as §7

Row | Compound | caspase 3/7 levels (cell death, apoptosis) [1] | caspase 3/7 levels (cell death, apoptosis) [2] | caspase 3/7 levels (cell death, apoptosis) [3] | cell death (live versus dead cells) [4] | cell death (live versus dead cells) [5] | survival and expansion of transplanted xMGs in the brain [6] | survival of transplanted xMGs in the brain [7] | percent of human microglia (Ku80+/Iba1+) of total microglia ([8]; 10 days) [%] | percent of human microglia (Ku80+/Iba1+) of total microglia ([8]; 30 days) | transcriptomic alterations versus DMSO-treated cells [9] | transcriptomic alterations versus DMSO-treated cells [10] | transcriptomic alterations versus DMSO-treated cells [11]
1 | CNC(=O)c1cc(Oc2ccc3nc(N[C@@H]4CCCC[C@H]4O)sc3c2)ccn1 [BLZ945] | no significant increase in caspase levels | no significant increase in caspase levels | significant levels of increased caspase | little-to-no cell death | substantial cell death |  |  |  |  |  |  | 
2 | CC1(C)CC=C(c2nc(C3CC(C)(C)OC(C)(C)C3)ccc2NC(=O)c2nc(C#N)c[nH]2)CC1 [Edicotinib] | no significant increase in caspase levels | no significant increase in caspase levels | significant levels of increased caspase | little-to-no cell death | substantial cell death |  |  |  |  |  |  | 
3 | FC(F)(F)c1ccc(CNc2ccc(Cc3c[nH]c4ncc(Cl)cc34)cn2)cn1 [PLX3397] | complete resistance to cell death; also recorded: no significant increase in caspase levels | complete resistance to cell death; also recorded: no significant increase in caspase levels | robust dose-dependent induction of apoptosis; also recorded: significant levels of increased caspase | little-to-no cell death | substantial cell death | proliferate and expand | only a handful of wild-type human xMGs survive | ~25 | 90-95% |  |  | 
4 | COc1ncc(F)cc1CNc1ccc(Cc2c[nH]c3ncc(C)cc23)c(F)n1 [PLX5622] | complete resistance to cell death; also recorded: no significant increase in caspase levels | complete resistance to cell death; also recorded: no significant increase in caspase levels | robust dose-dependent induction of apoptosis; also recorded: significant levels of increased caspase | little-to-no cell death | substantial cell death |  |  |  |  | failed to significantly alter gene expression | failed to significantly alter gene expression | induced significant transcriptomic alterations
